The test system of this series is CCRIS mutagenicity, Ames/micronucleus/aberration tests. Briefly: CCRIS mutagenicity studies.
[1] abbreviates: Test System: AMES SALMONELLA TYPHIMURIUM, Strain/Indicator: TA98, Metabolic Activation: NONE, Method: STANDARD PLATE.
Where [2] appears, read: Test System: AMES SALMONELLA TYPHIMURIUM, Strain/Indicator: TA100, Metabolic Activation: NONE, Method: STANDARD PLATE.
[3] abbreviates: Test System: AMES SALMONELLA TYPHIMURIUM, Strain/Indicator: TA100, Metabolic Activation: RAT, LIVER, S-9, AROCLOR 1254, Method: STANDARD PLATE.

The structures appear in SMILES notation. Calls of active or inactive are those of the source. The rule behind the calls is not given here.

As for `CCCCC/C=C/C=C/C=O`, the mutagenic call reads like this: (Test System: AMES SALMONELLA TYPHIMURIUM, Strain/Indicator: TA98, Metabolic Activation: HAMSTER, LIVER, S-9, AROCLOR 1254, Method: STANDARD PLATE) “inactive; negative”; under setting [1], “inactive; negative”; (Test System: AMES SALMONELLA TYPHIMURIUM, Strain/Indicator: TA98, Metabolic Activation: RAT, LIVER, S-9, AROCLOR 1254, Method: STANDARD PLATE) “inactive; negative”; (Test System: AMES SALMONELLA TYPHIMURIUM, Strain/Indicator: TA100, Metabolic Activation: HAMSTER, LIVER, S-9, AROCLOR 1254, Method: STANDARD PLATE) “inactive; negative”; under setting [2], “inactive; negative”; under setting [3], “inactive; negative”. Besides, the mutagenic call was “inactive; negative” (Test System: AMES SALMONELLA TYPHIMURIUM, Strain/Indicator: TA1535, Metabolic Activation: HAMSTER, LIVER, S-9, AROCLOR 1254, Method: STANDARD PLATE); “inactive; negative” (Test System: AMES SALMONELLA TYPHIMURIUM, Strain/Indicator: TA1535, Metabolic Activation: NONE, Method: STANDARD PLATE); “inactive; negative” (Test System: AMES SALMONELLA TYPHIMURIUM, Strain/Indicator: TA1535, Metabolic Activation: RAT, LIVER, S-9, AROCLOR 1254, Method: STANDARD PLATE); “inactive; negative” (Test System: AMES SALMONELLA TYPHIMURIUM, Strain/Indicator: TA1537, Metabolic Activation: HAMSTER, LIVER, S-9, AROCLOR 1254, Method: STANDARD PLATE); “inactive; negative” (Test System: AMES SALMONELLA TYPHIMURIUM, Strain/Indicator: TA1537, Metabolic Activation: NONE, Method: STANDARD PLATE); “inactive; negative” (Test System: AMES SALMONELLA TYPHIMURIUM, Strain/Indicator: TA1537, Metabolic Activation: RAT, LIVER, S-9, AROCLOR 1254, Method: STANDARD PLATE). Further, the mutagenic call by setting is: (Test System: AMES SALMONELLA TYPHIMURIUM, Strain/Indicator: TA1538, Metabolic Activation: HAMSTER, LIVER, S-9, AROCLOR 1254, Method: STANDARD PLATE) “inactive; negative”; (Test System: AMES SALMONELLA TYPHIMURIUM, Strain/Indicator: TA1538, Metabolic Activation: NONE, Method: STANDARD PLATE) “inactive; negative”; (Test System: AMES SALMONELLA TYPHIMURIUM, Strain/Indicator: TA1538, Metabolic Activation: RAT, LIVER, S-9, AROCLOR 1254, Method: STANDARD PLATE) “inactive; negative”; (Test System: MOUSE LYMPHOMA, Strain/Indicator: L5178Y (TK+/TK-), Metabolic Activation: NONE, Method: SUSPENSION/PLATE) “inactive; negative. reevaluation of results: negative”; (Test System: MOUSE LYMPHOMA, Strain/Indicator: L5178Y (TK+/TK-), Metabolic Activation: RAT, LIVER, S-9, AROCLOR 1254, Method: SUSPENSION/PLATE) “inactive; negative. reevaluation of results: negative”.
On to `CN1C(=O)CN=C(c2ccccc2F)c2cc([N+](=O)[O-])ccc21`, for which the mutagenic call under setting [2] was “active; positive” and the mutagenic call under setting [3] is “active; positive”.
Regarding `CC(O)CN(CC(O)CO)N=O` (stereo not drawn), the mutagenic call is “inactive; negative” (Test System: AMES SALMONELLA TYPHIMURIUM, Strain/Indicator: TA100, Metabolic Activation: HAMSTER, LIVER, S-9, 3-METHYLCHOLANTHRENE, Method: PREINCUBATION); “active; positive” (Test System: AMES SALMONELLA TYPHIMURIUM, Strain/Indicator: TA100, Metabolic Activation: HAMSTER, LIVER, S-9, PHENOBARBITAL, Method: PREINCUBATION); “inactive; negative” (Test System: AMES SALMONELLA TYPHIMURIUM, Strain/Indicator: TA100, Metabolic Activation: HAMSTER, LIVER, S-9, Method: PREINCUBATION); “inactive; negative” (Test System: AMES SALMONELLA TYPHIMURIUM, Strain/Indicator: TA100, Metabolic Activation: MOUSE, LIVER, S-9, 3-METHYLCHOLANTHRENE, Method: PREINCUBATION); “active; positive” (Test System: AMES SALMONELLA TYPHIMURIUM, Strain/Indicator: TA100, Metabolic Activation: MOUSE, LIVER, S-9, PHENOBARBITAL, Method: PREINCUBATION); “inactive; negative” (Test System: AMES SALMONELLA TYPHIMURIUM, Strain/Indicator: TA100, Metabolic Activation: MOUSE, LIVER, S-9, Method: PREINCUBATION). For the same compound, the mutagenic call by setting is: (Test System: AMES SALMONELLA TYPHIMURIUM, Strain/Indicator: TA100, Metabolic Activation: NONE, Method: PREINCUBATION) “inactive; negative”; (Test System: AMES SALMONELLA TYPHIMURIUM, Strain/Indicator: TA100, Method: PREINCUBATION) “active; positive”.
With `Fc1ccc(F)c2c1ccc1cccnc12`, the mutagenic call (Test System: AMES SALMONELLA TYPHIMURIUM, Strain/Indicator: TA100, Metabolic Activation: RAT, LIVER, S-9, PHENOBARBITAL AND 5,6-BENZOFLAVONE, Method: PREINCUBATION) is “active; positive”.
Turning to `O=[N+]([O-])c1ccc2c(c1)nc(/C=N/OCc1ccccc1[N+](=O)[O-])n2Cc1ccc(Cl)cc1Cl`, the mutagenic call was “active; positive” under setting [1]; “active; positive” (Test System: AMES SALMONELLA TYPHIMURIUM, Strain/Indicator: TA98, Metabolic Activation: RAT, LIVER, S-9, PHENOBARBITAL AND BETA-NAPHTHOFLAVONE, Method: STANDARD PLATE); “active; positive” under setting [2]; “active; positive” (Test System: AMES SALMONELLA TYPHIMURIUM, Strain/Indicator: TA100, Metabolic Activation: RAT, LIVER, S-9, PHENOBARBITAL AND BETA-NAPHTHOFLAVONE, Method: STANDARD PLATE).
In the case of `O.O=C([O-])c1ccccn1.O=C([O-])c1ccccn1.O=C([O-])c1ccccn1.[Cr+3]`, the mutagenic call (End Point: In vivo micronucleus, Test System: Peripheral blood normochromatic erythrocytes, Species: Mouse, Strain/Sex: B6C3F1/Female, Route: Oral) was “inactive; negative”; the mutagenic call (End Point: In vivo micronucleus, Test System: Peripheral blood normochromatic erythrocytes, Species: Mouse, Strain/Sex: B6C3F1/Male, Route: Oral) is “inactive; negative”; the mutagenic call (Test System: Ames Salmonella typhimurium, Strain/Indicator: TA98, Metabolic Activation: None, Method: Preincubation) is “inactive; negative”; the mutagenic call (Test System: Ames Salmonella typhimurium, Strain/Indicator: TA98, Metabolic Activation: Rat, Liver, S-9, Aroclor 1254 (10%), Method: Preincubation) was “inactive; negative”; the mutagenic call (Test System: Ames Salmonella typhimurium, Strain/Indicator: TA98, Metabolic Activation: Rat, Liver, S-9, Phenobarbital and 5,6-benzoflavone, Method: Preincubation) was “inactive; negative”; the mutagenic call (Test System: Ames Salmonella typhimurium, Strain/Indicator: TA100, Metabolic Activation: None, Method: Preincubation) is “inactive; negative”. For the same compound, the mutagenic call is, setting by setting: (Test System: Ames Salmonella typhimurium, Strain/Indicator: TA100, Metabolic Activation: Rat, Liver, S-9, Aroclor 1254 (10%), Method: Preincubation) “inactive; negative”; (Test System: Ames Salmonella typhimurium, Strain/Indicator: TA100, Metabolic Activation: Rat, Liver, S-9, Phenobarbital and 5,6-benzoflavone, Method: Preincubation) “inactive; negative”; (Test System: Ames Salmonella typhimurium, Strain/Indicator: TA1535, Metabolic Activation: None, Method: Preincubation) “inactive; negative”; (Test System: Ames Salmonella typhimurium, Strain/Indicator: TA1535, Metabolic Activation: Rat, Liver, S-9, Phenobarbital and 5,6-benzoflavone, Method: Preincubation) “inactive; negative”; (Test System: Ames Salmonella typhimurium, Strain/Indicator: TA1537, Metabolic Activation: None, Method: Preincubation) “inactive; negative”; (Test System: Ames Salmonella typhimurium, Strain/Indicator: TA1537, Metabolic Activation: Rat, Liver, S-9, Phenobarbital and 5,6-benzoflavone, Method: Preincubation) “inactive; negative”. Moreover, the mutagenic call reads like this: (Test System: E. coli, Strain/Indicator: WP2 uvrA/pKM101, Metabolic Activation: None, Method: Preincubation) “inactive; negative”; (Test System: E. coli, Strain/Indicator: WP2uvrA/pKM101, Metabolic Activation: None, Method: Preincubation) “inactive; negative”; (Test System: E. coli, Strain/Indicator: WP2 uvrA/pKM101, Metabolic Activation: Rat, Liver, S-9, Aroclor 1254 (10%), Method: Preincubation) “inactive; negative”; (Test System: E. coli, Strain/Indicator: WP2uvrA/pKM101, Metabolic Activation: Rat, Liver, S-9, Phenobarbital and 5,6-benzoflavone, Method: Preincubation) “inactive; negative”.
For the compound `COc1c(O)cc2c3c(cc4ccccc4c13)NC2=O`, under “Test System: AMES SALMONELLA TYPHIMURIUM, Strain/Indicator: TM677/8-AZAGUANINE, Metabolic Activation: NONE, Method: SUSPENSION/PLATE”, the mutagenic call is “inactive; negative”.
Consider `Cc1ccc(S(=O)(=O)Oc2ccc(N=Nc3ccc(-c4ccc(N=Nc5c(S(=O)(=O)O)cc6cc(S(=O)(=O)O)ccc6c5O)cc4C)c(C)c3)cc2)cc1`, for which the mutagenic call (Test System: AMES SALMONELLA TYPHIMURIUM, Strain/Indicator: TA98, Metabolic Activation: HAMSTER, LIVER, S-9, Method: PREINCUBATION (PRIVAL METHOD)) was “inactive; negative”.
For the compound `CCn1c(N)nc2c3cccnc3ccc21`, the mutagenic call (Test System: AMES SALMONELLA TYPHIMURIUM, Strain/Indicator: TA98, Metabolic Activation: RAT, LIVER, S-9, AROCLOR 1254, Method: PREINCUBATION) is “active; positive”.
In the case of `NC(=O)N(CCBr)N=O`, the mutagenic call is “active; positive” (Test System: E. COLI B, Strain/Indicator: H/R30R, Metabolic Activation: NONE) and “active; positive” (Test System: E. COLI B, Strain/Indicator: HS30R, Metabolic Activation: NONE).

(Values after PubChem BioAssay AID1259407 (Chemical Carcinogenesis Research Information System (CCRIS), 2018).)
